# Source: ChEMBL document CHEMBL5108044, “Discovery of a Novel Potent STAT3 Inhibitor HP590 with Dual p-Tyr705/Ser727 Inhibitory Activity for Gastric Cancer Treatment” (J Med Chem, 2022)
# How the values were obtained:
# MKN-45 [1] = test: Induction of apoptosis in human MKN-45 cells assessed as viable cells at 5 nM incubated for 48 hrs by FITC-annexin V/propidium iodide staining based flow cytometry (reference value: 68%); format: functional; details: read-out: Activity
# MKN-45 [2] = test: Induction of apoptosis in human MKN-45 cells assessed as necrotic cells 10 nM incubated for 48 hrs by FITC-annexin V/propidium iodide staining based flow cytometry (reference value: 10.3%); format: functional
# MKN-45 [3] = test: Induction of apoptosis in human MKN-45 cells assessed as viable cells at 20 nM incubated for 48 hrs by FITC-annexin V/propidium iodide staining based flow cytometry (reference value: 68%); format: functional; details: read-out: Activity
# MKN-45 [4] = test: Induction of apoptosis in human MKN-45 cells assessed as early apoptic cells 20 nM incubated for 48 hrs by FITC-annexin V/propidium iodide staining based flow cytometry (reference value: 2.79%); format: functional
# [5] = AUC (0 to t) in ICR mouse plasma at 10 mg/kg, po measured up to 24 hrs by LC-MS/MS analysis; format: ADME, organism-based; design: time < 24 hrs, dose 10 mg/kg, route po
structure (smiles),measurement,setting,value
O=C(c1ccc(-c2noc(-c3ccc(C(F)(F)F)cc3)n2)cc1)N1CCN(Cc2ccc(OCC(F)(F)F)cc2)CC1,viability at 0.005 µM,MKN-45 [1],69.6%
same,Activity,MKN-45 [2],9.14%
same,viability at 0.02 µM,MKN-45 [3],60.7%
same,Activity,MKN-45 [4],5.06%
same,AUC(0-t) at 24 h,[5],9400 ng·h/mL
